Reference: patent publication US8420653B2, “Pyrimidine compounds and their uses” (Orchid Chemicals & Pharmaceuticals Limited, priority 2008, dated 2013)

System: TPA induced dermatitis
Test: Psoriasis model, TPA induced dermatitis
Type: in vivo
Details: mice, topical on the ears
Protocol: Inhibitory Activity in Psoriasis Model TPA induced dermatitis in mice was performed using the protocol described in Eur J Pharmacol 507, 253-259, 2005. Balb/c mice were acclimatized to laboratory conditions 5-7 days prior to the start of the experiment. They were randomly distributed to various groups based on body weight. The baseline ear thickness of the animal's both ears using thickness gauge was measured. For each animal 20 μl of that contains 2.5 μg of TPA was applied with help of micropipettor with disposable tips. Test compound was applied topically to both inner and outer surface of the both the ears i.e. left and right ear with acetone as control after 30 minutes 6 hours and 24 hours after application of TPA (20 μl). Ear thickness was measured after 6 and 24 hours in animals, while for ear weight ears were excised under anesthesia and weighed.

SMILES: NS(=O)(=O)c1cccc(-c2c(-c3ccc(F)cc3)nc(C(F)(F)F)nc2-n2ccnc2)c1 [Example 80, 3-[4-(4-Fluorophenyl)-6-(1H-imidazol-1-yl)-2-(trifluoromethyl)pyrimidin-5-yl]benzenesulfonamide]
- Psoriasis-acute TPA induced dermatitis % inhibition Ear Wt: 18.9%
- Psoriasis-acute TPA induced dermatitis % inhibition Ear thickness: 19.2%
